#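 96-well plates; 48 h exposure; 5 concentrations. Endpoints by linear interpolation between flanking doses. Not reached: highest tested concentration assigned. GI50: concentration for 50% inhibition of growth. TGI: total growth inhibition.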
# Columns and labels:
# Assay in all cases: NCI-60 cell line screen, 48 h
# A498 renal = tested on: A498 renal
# COLO 205 colon = tested on: COLO 205 colon
# HCC-2998 colon = tested on: HCC-2998 colon
# HOP-62 NSCLC = tested on: HOP-62 NSCLC
# HS 578T breast = tested on: HS 578T breast
# HT29 colon = tested on: HT29 colon
# M14 melanoma = tested on: M14 melanoma
# SR leukemia = tested on: SR leukemia
# TK-10 renal = tested on: TK-10 renal
# UACC-62 melanoma = tested on: UACC-62 melanoma
Compound,TGI (A498 renal) [µM],TGI (COLO 205 colon) [µM],TGI (HCC-2998 colon) [µM],TGI (HOP-62 NSCLC) [µM],TGI (HS 578T breast) [µM],TGI (HT29 colon) [µM],TGI (M14 melanoma) [µM],TGI (SR leukemia) [µM],TGI (TK-10 renal) [µM],TGI (UACC-62 melanoma) [µM],GI50 (A498 renal) [µM],GI50 (COLO 205 colon) [µM],GI50 (HCC-2998 colon) [µM],GI50 (HOP-62 NSCLC) [µM],GI50 (HS 578T breast) [µM],GI50 (HT29 colon) [µM],GI50 (M14 melanoma) [µM],GI50 (SR leukemia) [µM],GI50 (TK-10 renal) [µM],GI50 (UACC-62 melanoma) [µM]
CC(C)c1[nH]nc(C(N)=O)c1N=NN(C)C,> 100,> 100,> 100,> 100,> 100,> 100,> 100,71.2,> 100,> 100,–,–,–,–,–,–,–,–,–,–
CC(=O)Nc1ccc2c(c1)C(c1ccccc1Cl)=Nc1c(n[nH]c1C)N2,6.99,> 22,> 25,> 25,> 11.7,> 25,> 25,> 25,> 25,> 25,0.746,1.53,16.7,5.74,0.928,4.45,> 25,1.16,4.13,6.07
CCOC(=O)c1cc(C(=O)c2cc(OC)c(OC)c(OC)c2)n2ncccc12,0.742,1.33,> 100,> 75.6,26.1,> 100,> 100,> 100,> 100,> 100,0.0466,0.23,2.1,0.63,0.309,0.245,0.229,0.126,26.4,0.196
CCOC(=O)c1ccc(NC(=O)Nc2nncs2)cc1,0.978,2.63,8.24,15.6,47.4,10.9,3.02,24.3,41.2,26.4,0.23,0.174,0.571,0.237,0.297,0.189,0.104,0.0527,5.79,0.0761
COc1cc(/C=C\c2cc(OC)c(OC)c(OC)c2)cc(N/C=C\C(=O)c2ccc(OC(F)(F)F)cc2)c1OC,7.59,9.37,> 100,> 100,> 100,16.5,> 100,41.1,> 100,> 100,1.83,2.98,3.71,7.85,6.44,3.07,3.46,2.75,4.79,6.86
COC[C@@H](N=C1NC(=O)/C(=C/c2ccc3ncccc3c2)S1)c1ccccc1,12.5,> 25,> 25,> 25,> 23.2,> 25,> 25,15.6,–,> 25,4.25,10.8,12.3,11.7,7.43,8.83,13,3.64,–,11.6
COc1ccc(/C=C(/C#N)C(N)=O)c(OC)c1,25.7,> 100,–,> 100,> 100,> 100,> 100,> 100,> 100,> 100,–,–,–,–,–,–,–,–,–,–

# — PubChem BioAssay (NCI)
